# Measurements taken from patent US20250223552A1, “METHOD FOR PREPARING T CELLS FOR ADOPTIVE T CELL THERAPY” (ST. JUDE CHILDREN'S RESEARCH HOSPITAL, INC., priority 2022, published 2025).
# Key:
# OT-I CD8^+ T cells = test: OT-I CD8+ T cells activated with anti-CD3/CD28 in presence of Arid1a inhibitor, CD62L by flow cytometry; format: cell-based, mouse; conditions: inhibitor 1 μM during 48 hours activation, drug removed, additional 2 days culture with IL-2; FIG. 1
# From the text: Data are compiled from at least two independent experiments. Data are shown as mean±s.e.m. *p<0.05; two-tailed unpaired Student's t-test.
# Flow Cytometry. Antibodies from Biolegend included APC/Cy7 anti-human CD8α, BV785 anti-human CD45RA, PE anti-human CD62L, APC anti-human CD27, PE/Cy7 anti-human CCR7, BV421 anti-human CD95, BV785 anti-mouse/human CD44, BV510 anti-mouse KLRG1, KIRAVIA Blue 520 anti-mouse CD62L, BV605 anti-mouse CD127, BV650 anti-mouse CX3CR1, APC anti-mouse CD8α, ALEXA FLUOR® 700 fluorescent dye anti-mouse CD45.2, APC anti-mouse CD98; PE anti-mouse CXCR3 (eBioscience); and BUV395 anti-human CD3, BUV805 anti-human CD45RO; BUV496 anti-mouse CD45.1, BUV805 anti-mouse CD8α were acquired from BD Biosciences. For surface markers, cells were stained for 30 minutes at 4° C. in PBS+2% (w/v) bovine serum albumin (BSA). […] Samples were acquired on CYTEK® Aurora or BD LSRII flow cytometer and analyzed with FlowJo software.
# (§1) Effective adoptive T cell therapy for cancer is critically dependent upon the use of T cells with long-term memory potential (Lugli et al. (2020) Trends Immunol. 41:17-28; Gattinoni et al. (2012) Nat. Rev. Cancer 12:671-684; Klebanoff et al. (2005) Proc. Natl. Acad. Sci. USA 102:9571-9576; Hurton et al. (2016) Proc. Natl. Acad. Sci. USA 113: E7788-E7797). Therefore, it was determined whether manipulation of CBAF can improve anti-tumor therapy. […]
# B16-Ova tumors = test: B16-Ova tumor growth after adoptive transfer of inhibitor-pretreated OT-I cells; format: in vivo; conditions: OT-I cells transiently treated with inhibitor during activation, transferred into tumor-bearing mice; FIG. 2
# Protocol: Naïve OT-I CD8^+ T cells were activated with anti-CD3/CD28 in the presence or absence of Arid1a inhibitor for 48 hours followed by expansion for another 4 days. Data are representative of two independent experiments. Data are as shown mean±s.e.m. **p<0.01, ***p<0.001; two-way ANOVA.
# (§2) In Vivo Tumor Transplant Experiment. For B16-Ova and MC38-Ova tumors, 0.5×10^6 tumor cells were injected subcutaneously into naïve mice (7-10 weeks of age). OT-I cells (2×10^6) were transferred i.v. 7 days after tumor injection. Tumors were measured every two days.
# as §1, with “therapy. Accordingly, OT-I cells were transduced with sgRNA for Smarcd2 or control sgRNA, and the transduced cells were transferred into animals that were subsequently infected with Lm-Ova. Animals were then inoculated with B16F10 murine melanoma cells expressing Ova (B16-Ova) at memory phase (day >30 post-infection).” for “therapy.”
# MC38-Ova tumors = test: MC38-Ova tumor growth after adoptive transfer of inhibitor-pretreated OT-I cells; format: in vivo; conditions: OT-I cells transiently treated with inhibitor during activation, transferred into tumor-bearing mice; FIG. 3
# Protocol: Naïve OT-I CD8^+ T cells were activated with anti-CD3/CD28 in the presence or absence of Arid1a inhibitor for 48 hours followed by expansion for another 4 days. Data are representative of two independent experiments. Data are shown as mean±s.e.m. **p<0.01; two-way ANOVA.
# as §2
# Effective adoptive T cell therapy for cancer is critically dependent upon the use of T cells with long-term memory potential (Lugli et al. (2020) Trends Immunol. 41:17-28; Gattinoni et al. (2012) Nat. Rev. Cancer 12:671-684; Klebanoff et al. (2005) Proc. Natl. Acad. Sci. USA 102:9571-9576; Hurton et al. (2016) Proc. Natl. Acad. Sci. USA 113: E7788-E7797). Therefore, it was determined whether manipulation of CBAF can improve anti-tumor therapy. Accordingly, OT-I cells were transduced with sgRNA for Smarcd2 or control sgRNA, and the transduced cells were transferred into animals that were subsequently infected with Lm-Ova. Animals were then inoculated with B16F10 murine melanoma cells expressing Ova (B16-Ova) at memory phase (day >30 post-infection). Improved control of tumor growth and enhanced survival by the Smarcd2-ablated CD8^+ T cells were observed. […]
# murine B7-H3 CAR-T cells = test: Phenotype of B7-H3 CAR-T cells generated from T cells transiently treated with Arid1a inhibitor; format: cell-based; conditions: T cells activated 2 days with inhibitor, B7-H3 CAR transduction, additional 6 days culture
# Protocol: Murine CAR-T cells were generated as described before (Haydar et al. (2021) Neuro-Oncol. 23:999-1011) with modification. Naïve CD8^+ T cells from 6-8 weeks old CD45.1^+ mice were activated with plate bound anti-CD3ε (1 μg/ml, Bio-X-Cell), anti-CD28 (2 μg/ml, Bio-X-Cell) and 50 U/ml rhIL-2 (Peprotech). On day 2 post-activation, CD8^+ T cells were transduced with retrovirus expressing B7-H3-CAR or control CAR on recombinant human fibronectin sold under the tradename RETRONECTIN® (Takara)-coated non-tissue culture treated plate in complete RPMI medium supplemented with 50 U/ml rhIL-2. At 48 hours after transduction, CAR-T cells were harvested and expanded in the presence of 10 ng/ml rhIL-15 (Peprotech) for another 3 days and then used d for in vivo and in vitro experiments.
# (§3) Currently the most widely used adoptive T cell therapy employs the use of CARs. However, the use of CAR-T cells for the treatment of solid tumors remains challenging (Lim & June whether CAR-T cell (2017) Cell 168:724-740). […] The ability of B7-H3 CAR-T cells to control the growth of F420 cells was then assessed in vivo.
# [1] = system: B7-H3-expressing GL261 tumor cells; test: Repeat stimulation assay of B7-H3 CAR-T cells with GL261 tumor cells; format: cell-based, murine; conditions: CAR-T:tumor 3:1, counted every 3 days, FIG. 4
# Protocol: (§4) T cells were transduced with B7-H3 CAR or a control CAR containing only the single-chain variable fragment (scFv) and transmembrane domain (B7-H3 STOP CAR) and co-cultured with GL261 tumor cells at the ratio of 3:1. Cells numbers were assessed every 3 days. Data are compiled from at least two independent experiments. Data are shown as mean±s.e.m. ***p<0.001; two-way ANOVA.
# (§5) Repeat Stimulation Assay. For repeat stimulation assays, 3×10^5 tumor cells (GL261, F420) were plated in a 24-well plate and allowed to adhere for 4-6 hours at 37° C., CAR-T cells (1×10^6) were then added to the wells containing tumor cells without any exogenous cytokines (tumor: CAR-T cell ratio=1:3). After 3 days of co-culture, CAR-T cells were lifted by gentle pipetting to avoid disrupting adherent tumor cells, and the number of T cells was determined using a hemocytometer. Stimulations and cell counts were repeated every 3 days with the same tumor cells.
# as §3
# [2] = system: B7-H3-expressing F420 tumor cells; test: Repeat stimulation assay of B7-H3 CAR-T cells with F420 tumor cells; format: cell-based, murine; conditions: CAR-T:tumor 3:1, counted every 3 days, FIG. 5
# Protocol: as §4, with “scFv” for “single-chain variable fragment (scFv)”, “F420” for “GL261”, “*p<0.05;” for “***p<0.001;”
# as §5, §3
# F420 tumor = test: F420 tumor-bearing mice treated with B7-H3 CAR-T cells pre-treated with Arid1a inhibitor; format: in vivo
# Protocol: Data are representative of two independent experiments. Data are shown as mean±s.e.m. *p<0.05, ***p<0.001; two-way ANOVA.
# Data are representative of two independent experiments. Log-rank (Mantel-Cox) test was performed for comparing survival curves.
# For CAR-T tumor models, the murine osteosarcoma cell line F420 was derived from singly floxed p53+/F-Col2.3 transgenic mice (Zhao et al. (2015) Oncogene 34:5069-5079); 0.5×10^6 F420 cells were injected subcutaneously into naïve mice. Seven days after tumor transplant, 5×10^6 B7-H3 CAR-T cells were transferred i.v. without lymphodepleting chemotherapy and tumor size was measured every two days.
# Currently the most widely used adoptive T cell therapy employs the use of CARs. However, the use of CAR-T cells for the treatment of solid tumors remains challenging (Lim & June whether CAR-T cell (2017) Cell 168:724-740). To examine function is enhanced by acute Arid1a inhibition, a CAR targeting murine B7-H3 (Haydar et al. (2021) Neuro-Oncol. 23:999-1011) was used in two B7-H3-positive cell lines, murine osteosarcoma F420 (Zhao et al. (2015) Oncogene 34:5069-5079; Kenneth et al. (2021) Mol. Ther. 29:326-326) and glioma GL261 (Haydar et al. (2021) Neuro-Oncol. 23:999-1011). Murine T cells were activated for 2 days in the presence or absence of the Arid1a inhibitor, followed by retroviral transduction of the B7-H3 CAR to generate CAR-T cells. […] The ability of B7-H3 CAR-T cells to control the growth of F420 cells was then assessed in vivo.
# human CD8^+ T cells [3] = test: Differentiation of activated human naive CD8+ T cells in vitro (TCM, TSCM, TEM markers); format: cell-based; conditions: treatment during the first 48 hours; anti-CD3/CD28, culture in IL-15 or IL-2; FIG. 8
# Protocol: Naïve human CD8^+ T cells were activated with anti-CD3/CD28 and cultured with IL-15; Arid1a inhibitor was added at the indicated time point (n=6 per group). Data are compiled from at least two independent experiments. Data are representative of two independent experiments. Data shown are as mean±s.e.m. *p<0.05, **p<0.01, ***p<0.001; one-way ANOVA.
# Human Naïve CD8^+ T Cell Isolation and Stimulation. Human naive CD8^+ T cells were isolated from apheresis ring obtained from the St. Jude blood donor center. Peripheral blood mononuclear cells (PBMC) were isolated using a density gradient medium sold under the tradename LYMPHOPREP® (StemCell Inc.) following the manufacturer's protocol. Briefly, blood from apheresis ring was mixed with phosphate-buffered saline (PBS) containing 2% fetal bovine serum in 1:1 ratio. The mixture was then layered carefully on a density gradient medium sold under the tradename LYMPHOPREP®. Samples were centrifuged at 4000 rpm for 30 minutes at room temperature without braking. The PBMC layer was aspirated, washed twice with 2% fetal calf serum/PBS before isolation of naïve CD8^+ T cell using the MojoSort Human CD8^+ Naïve T Cell Isolation Kit (Biolegend). Naïve CD8^+ T cells were then stimulated with human T cell activation and expansion reagent sold under the tradename IMMUNOCULT® Human CD3/CD28 T Cell Activator (StemCell Inc.) plus 50 U/ml rhIL-2 or 10 ng/ml rhIL-15 for 2 days and expanded with 50 U/ml rhIL-2 or 10 ng/ml rhIL-15. BRD-K98645985 (1 μM; AOBIOUS or MedChemExpress) was added at the indicated time points. All human studies were in compliance with the Declaration of Helsinki. Blood donors were recruited by the Blood Donor Center at St. Jude Children's Research Hospital. Blood donors provided written consent for research use of their blood products not used in transfusions, which has been reviewed and approved by the Institutional Review Board at St. Jude Children's Research Hospital.
# The effect of the Arid1a inhibitor on the differentiation of activated, human CD8^+ T cells was also analyzed. […] After 30 days, T cells were recovered and analyzed.
# human CD8^+ T cells [4] = test: Persistence of inhibitor-pretreated human CD8+ T cells in NSG mice at day 30 after adoptive transfer; format: in vivo; conditions: transient treatment during activation; recovered after 30 days; FIG. 9
# Protocol: Naïve human CD8^+ T cells were activated with anti-CD3/CD28 in the presence or absence of Arid1a inhibitor for 48 hours followed by expansion in IL-15 containing medium for another 4 days prior to adoptive transfer. Data are representative of two independent experiments. Data are shown as mean±s.e.m. *p<0.05; two-tailed unpaired Student's t-test.
# For human CD8^+ T cell experiments, naïve CD8^+ T cells were activated by human CD3/CD28 T cell activator (StemCell) with or without an Arid1a inhibitor (BRD-K98645985; 1 μM; AOBIOUS or MedChemExpress) for two days and cultured in rhIL-15 (10 ng/ml, Peprotech) containing medium. Activated CD8^+ T cells (3×10^6) were then transferred to NOD scid gamma mice sold under the tradename NSG®. After 30 days, splenic cells were analyzed by flow cytometry.
# The effect of the Arid1a inhibitor on the differentiation of activated, human CD8^+ T cells was also analyzed. Human naïve CD8^+ T cells from healthy donors were enriched and stimulated with anti-CD3/CD28, following by culturing in IL-15 or IL-2, two cytokines that respectively promote in vitro TMEM-like and TEFF-like cell formation (Buck et al. (2016) Cell 166:63-76; Mitchell et al. (2010) J. Immunol. 184:6719-6730). Arid1a inhibitor was added during different periods of culture. […] After 30 days, T cells were recovered and analyzed.
# [5] = day 9 post-transfer, vs vehicle-treated CAR-T cells
smiles,measurement,setting,value
CO[C@H]1CN(C)C(=O)c2cc(NC(=O)NC(C)C)ccc2OC[C@H](C)N(Cc2ccc(-c3ccccn3)cc2)C[C@@H]1C [BRD-K98645985],generation of cells with the TCM marker CD62L,OT-I CD8^+ T cells,promoted the generation of cells with the TCM marker CD62L
same,control of B16-Ova tumor growth in vivo by transferred OT-I cells,B16-Ova tumors,improved the ability of OT-I cells to control
same,control of MC38-Ova tumor growth in vivo by transferred OT-I cells,MC38-Ova tumors,improved the ability of OT-I cells to control
same,CAR expression compared with vehicle-treated controls,murine B7-H3 CAR-T cells,no difference in CAR expression
same,CD62L expression of CAR-T cells,murine B7-H3 CAR-T cells,high CD62L expression
same,expansion of CAR-T cells on repeated stimulation,[1],greater expansion
same,expansion of CAR-T cells on repeated stimulation,[2],greater expansion
same,tumor control (F420 tumor growth),"F420 tumor; B7-H3 CAR-T cells from transiently inhibitor-treated T cells vs untreated, FIG. 6",markedly enhanced tumor control
same,survival of F420 tumor-bearing mice,"F420 tumor; B7-H3 CAR-T cells from transiently inhibitor-treated T cells vs untreated, FIG. 7",markedly enhanced
same,number of CAR-T cells among tumor infiltrating lymphocytes,F420 tumor; [5],higher numbers
same,proportion of CD62L^+CD44^+ cells among tumor infiltrating CAR-T cells,F420 tumor; [5],higher proportion of CD62L^+CD44^+ cells
same,"generation of cells with markers of T memory stem cells (TSCM, CD45RA^+CCR7^+CD27^+CD95^+)",human CD8^+ T cells [3],necessary and sufficient to promote the generation
same,generation of cells with markers of TCM (CD45RA-CCR7+),human CD8^+ T cells [3],necessary and sufficient to promote the generation of cells with markers of TCM
same,"numbers of cells with markers of effector memory T cells (TEM, CD45RA^+CCR7^−)",human CD8^+ T cells [3],reduced numbers of cells with markers of effector memory T cells
same,persistence of activated human T cells in NSG mice,human CD8^+ T cells [4],enhanced persistence
same,propensity to express markers of TCM cells in NSG mice,human CD8^+ T cells [4],greater propensity to express markers of TCM cells
